In US9556170B2, “Substituted-1H-benzo[d]imidazole series compounds as lysine-specific demethylase 1 (LSD1) inhibitors” (University of Utah, priority 2013, dated 2017):

Molecular target: LSD1 (Homo sapiens (Human), UniProt O60341)
Test: LSD1 histone demethylase assay (LSD1 Inhibitor Screening Assay Kit, Cayman Chemical)
Assay type: biochemical
Settings: H2O2/resorufin fluorescence readout, dimethyl K4 H3 peptide substrate
Method: Recombinant (expressed in baculovirus infected BTI insect cells) monoamine oxidase A and monoamine oxidase B (Catalog No. M7316 and M7441, respectively) were purchased from Sigma-Aldrich Co. LLC. (St. Louis, Mo.). MAO-Glo™ Assay Kit was purchased from Promega Corporation (Madison, Wis.). ATPlite™ Luminescence Assay System (e.g. Catalog No. V1401) was purchased from PerkinElmer Inc. (Waltham, Mass.).
IC50 values are determined using GraphPad Prism 5 software. The data were entered as an X-Y plot into the software as percent inhibition for each concentration of the drug. The concentration values of the drug were log transformed and the nonlinear regression was carried out using the “sigmoidal dose-response (variable slope)” option within the GraphPad software to model the data and calculate IC50 values.

| SMILES | IC50 |
| --- | --- |
| CN1CCN(S(=O)(=O)c2ccc3[nH]c(Nc4cc(Cl)ccc4O)nc3c2)CC1 [Compound 2, 4-chloro-2-((5-((4-methylpiperazin-1-yl)sulfonyl)-1H-benzo[d]imidazol-2-yl)amino)phenol] | 0.273 µM |
| O=S(=O)(c1ccc2[nH]c(Nc3cc(Cl)ccc3O)nc2c1)N1CCNCC1 [Compound 3] | 0.081 µM |
